PubChem BioAssay AID743267 (Broad Institute, 2014)

Test system: human bronchial epithelial cells, CFTR corrector, plate reader
Test: CFTR ΔF508 corrector activity in bronchial cells, dose response, human bronchial epithelial cells, plate reader, cherry-pick, two tests (AID 743267)
[1] = measured here: test 2 replicate run
[2] = measured here: test 1 replicate run

Structure (SMILES)	AC50 [1] [µM]	AC50 [2] [µM]
O=C(Cc1ccc(Br)cc1)NCc1ccccc1	4.85	
COc1ccc(Cl)cc1NC(=O)CN(C)CC(=O)Nc1cc(OC)c(OC)c(OC)c1	8.47	
COc1cccc(-c2cnc3c(NC(C)=O)cc(-c4cc(F)ccc4OC)cn23)c1	11.9	
NS(=O)(=O)c1ccc(Cl)c(S(N)(=O)=O)c1	1.16	
COC1C(C)OC(OC2CC(C)(O)Cc3cc4c(c(O)c32)C(=O)c2c(O)cc3c(c2C4=O)OC2OC3(C)C(O)C(N(C)C)C2O)C(OC)C1(C)OC (stereo not drawn)	14.3	
O=c1cc(-c2ccccc2)[nH]c2ccc(F)cc12	> 50	
COCCCNc1nnc(Cc2ccc(Cl)cc2)c(=O)[nH]1	3.78	
COc1ccc(/C=C2/CCCc3ccccc3C2=O)cc1	1.92	
Cc1ccc(C)c(C2NC(=O)c3ccccc3N2)c1 (stereo not drawn)	2.91	
CCOP(=O)(C#Cc1ccccc1)C(O)c1ccc(Br)cc1 (stereo not drawn)	> 50	
Cc1ccc(/C=N/NC(=O)c2ccc3ccccc3c2)s1	2.05	
COc1ccc2c(c1OC)OCC2C (stereo not drawn)	30.2	
Cc1cc(NCc2ccccn2)n2ncc(-c3ccccc3)c2n1	15.9	
CCN1/C(=C/c2ccc3cc(C)cc(C)c3[n+]2CC)Sc2cc(C)ccc21	12.4	
Nc1nn(-c2ccccc2)c(N)c1N=Nc1cccc(F)c1	2.04	
C/C(=N\Nc1ncnc2sc(C)c(C)c12)c1ccccn1	0.589	
COc1ccccc1NC(=O)CSc1ccc(-c2ccccn2)nn1	20	
CN(C)/C=C1\C=C2C(=O)c3ccccc3N2C1=O	5.5	
Cc1ccc(/C=N/NC(=O)C2COc3ccccc3O2)s1 (stereo not drawn)	7.28	
c1ccc2c(NCCCN3CCOCC3)c3ccccc3nc2c1	3.51	
O=[N+]([O-])c1ccc(N2CCOCC2)c2c1no[n+]2[O-]	2.76	
CC1=Nc2cc(C(=O)NCC3CCCO3)ccc2Sc2ccc(C)cc21 (stereo not drawn)	2.57	

Structure (SMILES)	AC50 [1] [µM]	AC50 [2] [µM]
Cc1ccnc(N2C(=O)c3cccc4c([N+](=O)[O-])ccc(c34)C2=O)c1	6.5	
Nc1nc(Cl)nc2c1ncn2C1CC(O)C(CO)O1 (stereo not drawn)	2.73	
CC(=O)c1cccc(-c2ccnc3c2CC(C(=O)NCc2ccco2)O3)c1 (stereo not drawn)	2.01	
O=C1NC(=O)C(=Cc2ccc(N3CCOCC3)o2)C(=O)N1	> 50	
COc1cccc(N=Nc2ccc3cccnc3c2O)c1	> 50	
Cc1ccc(-c2ccc3c(c2)O[C@H](CN(C)C(=O)Nc2ccc(C(F)(F)F)cc2)[C@@H](C)CN([C@@H](C)CO)S3(=O)=O)cc1		> 50
Cc1nc(C)c(C(=O)NN=Cc2ccc(N(CCCl)CCCl)cc2)s1	> 50	
COc1ccc(NC(=O)N(C)C[C@@H]2Oc3cc(C#CCC(C)C)ccc3S(=O)(=O)N([C@H](C)CO)C[C@@H]2C)cc1		16
Cc1ccc(C)c(CSc2nc3[nH]ncc3c(=O)[nH]2)c1	2.57	
COc1ccc(S(=O)(=O)N2CC[C@@H]3[C@H](CO)N(C)c4ccc(-c5ccc(F)cc5)cc4[C@@H]32)cc1		16
CC(=O)OCCn1c2nc(=O)[nH]c(=O)c-2nc2cc(C)c(C)cc21	15.3	
Nc1c2ccccc2nc2ccccc12	2.62	
O=C1C=CN(C2OC(CO)C(O)C2O)C(=O)C1 (stereo not drawn)	> 50	
Cc1occc1C(=O)N/N=C/c1c(O)ccc2ccccc12	1.84	
COC(=O)c1cc(C(=O)N2CCN(c3cccc(Cl)c3)CC2)cc([N+](=O)[O-])c1	0.383	
COc1cccc2c1C(=O)C=C(C)C2=O	15.2	
CN1/C(=C\C=C2/SC(=S)NC2=O)C(C)(C)c2ccccc21	18.5	
COc1ccc(/C=N/NC(=O)c2cccnc2)cc1CSc1ccccn1	28.2	
COc1ccc(OC)c(N/C(N)=N/c2nc(C)cc(C)n2)c1	39.4	
COc1ccc(CNC(=O)c2cc3c(c(-c4cccc(-c5ccc(C#N)cc5)c4)n2)[C@@H](CCO)N([S@](=O)C(C)(C)C)C3)cc1		> 50
COc1ccc(C2=Nn3c(nnc3-c3ccccc3F)SC2)cc1OC1CCOC1 (stereo not drawn)	22.3	
C[C@@H]1CN([C@H](C)CO)S(=O)(=O)c2ccc(-c3ccccc3)cc2O[C@H]1CN(C)Cc1ccccn1		16

Structure (SMILES)	AC50 [1] [µM]	AC50 [2] [µM]
O=P(Oc1ccc(-c2ccccc2)cc1)(N1CC1)N1CC1	> 50	
CCN[C@H]1CN(CCCOC)S(=O)(=O)c2sc(S(N)(=O)=O)cc21	0.0398	
CCCCNC(=O)C(=O)Nc1ccc2c(c1)N(S(=O)(=O)c1cccs1)CCC2	1.89	
Cc1cc2oc(C(=O)NCCc3ccc(S(N)(=O)=O)cc3)c(C)c2cc1C	0.901	
O=C(CN1C(=O)NC2(CCCCCCC2)C1=O)Nc1ccc(Br)cc1	1.13	
Cn1cccc1/C=C1\SC(=Nc2ccc(O)cc2)NC1=O	0.315	
Cc1cccc(N2CCN(S(=O)(=O)c3cc(-c4cc(C)no4)ccc3C)CC2C)c1 (stereo not drawn)	2.57	
Cc1ccc2c(c1)CCCN2C(=O)CCc1nc2ccccc2c(=O)[nH]1	5.42	
O=C(CSC1=NCCN1)Nc1cccc([N+](=O)[O-])c1	14.1	
N#CC(C#N)=C1C=C2C=C(N3CCCCCC3)CCC2CC1 (stereo not drawn)	0.239	
O=C1c2cccc3c([N+](=O)[O-])ccc(c23)C(=O)N1Cc1cccnc1	10.2	
CC[n+]1c(-c2ccccc2)c2cc(N)ccc2c2ccc(N)cc21	7.74	
O=C1c2ccccc2C(=O)c2c1cccc2N(CCO)CCO	> 50	
O=C(NN=C1CCCC1)c1[nH]c2ccc(Cl)cc2c1-c1ccccc1	6.72	
COCOc1cccc(CN2CCC2(C)C(=O)Nc2ccc(C)c(O)c2)c1 (stereo not drawn)	> 50	
Cc1ccc(-c2ccc3c(c2)O[C@@H](CN(C)Cc2ccccn2)[C@H](C)CN([C@H](C)CO)S3(=O)=O)cc1		13.6
COc1cc(NC(=O)N2CCNC2=O)cc(C(=O)Nc2cccc(C(F)(F)F)c2)c1	5.11	
COc1ccc(OC)c(Nc2cc(C)nc3ccc(C)cc23)c1	10.7	
CC(=O)N1CCc2c(sc(NC(=O)c3ccc4c(c3)OCCO4)c2C#N)C1	7.74	
CCOC(=O)c1c(C)[nH]c(C(=O)N/N=C\c2ccccc2O)c1C	3.36	
Cn1cccc1/C=C1\SC(=Nc2cccc(O)c2)NC1=O	13.5	
O=C(N=Nc1c(O)[nH]c2ccc(Br)cc12)c1ccccc1-n1cccc1	2.33	

Structure (SMILES)	AC50 [1] [µM]	AC50 [2] [µM]
CO/N=C\CC(=O)Nc1ccc(Cl)cc1Cl	30.9	
CCCOCCOC(=O)c1[nH]c2c(c1C)C(=O)CC(c1cc(OC)ccc1OC)C2 (stereo not drawn)	3.69	
COc1cccc2c1C(=O)c1c(O)c3c(c(O)c1C2=O)C[C@@](O)(C(C)=O)C[C@@H]3O[C@H]1C[C@H](N)[C@H](O)[C@H](C)O1	7.44	
COc1ccc(NC(=O)C(=O)NCC2CCCN2S(=O)(=O)c2cccs2)cc1 (stereo not drawn)	3.63	
CCCCC(=NCCc1c(C)[nH]c2ccccc12)C1=C(O)CC(c2ccccc2)CC1=O (stereo not drawn)	3.92	
COc1ccc(OC)c(/C(C)=N\NC(=O)c2cc3cc(Cl)ccc3n2C)c1	8.3	
COc1cc(/C=C(\C#N)c2nc3ccccc3[nH]2)cc(OC)c1O	7.88	
O=C1C=C(NCCc2cc(Br)c(O)c(Br)c2)C(=O)c2ncccc21	3.33	
C[C@H]1CN([C@@H](C)CO)S(=O)(=O)c2ccc(-c3ccc(C#N)cc3)cc2O[C@@H]1CN(C)Cc1ccccn1		3.39
COCCCN=C1NN=C(c2cc(C)n(Cc3ccccc3Cl)c2C)CS1	3.3	
CCOC(=O)[C@]12CCCC=C1N(Cc1cccc3ccccc13)C(=O)[C@H](CC(=O)NCc1cccc(C(F)(F)F)c1)C2	30	
COc1cc(/C=C2/SC(=Nc3ccc(O)cc3)NC2=O)cc(OC)c1O	8.92	
COc1ccccc1NC(=O)C(=O)NCC(c1ccco1)N1CCc2ccccc21 (stereo not drawn)	> 50	
COc1ccc(-c2cc(=O)c3c(O)cc(O)cc3o2)cc1	> 50	
O=C(CN(Cc1ccco1)Cc1ccco1)Nc1cc(S(=O)(=O)N2CCCCC2)ccc1Cl	17.2	
Cc1cccc(Nc2nc(N)nc(-c3oc4ccccc4c3C)n2)c1	6.65	
Cc1nn(C)c(C)c1/C=C/C(=O)O	> 50	
Cc1ccc2[nH]c(C(=O)N/N=C/c3ccccc3O)c(C)c2c1	1.31	
CC1CCN(C(=O)c2ccc(S(=O)(=O)N3CCCC3)cc2)CC1	> 50	
COc1cccc2c1C(=O)c1c(O)c3c(c(O)c1C2=O)CC(O)(C(=O)CO)CC3OC1CC(N(C)C)C(O)C(C)O1 (stereo not drawn)	10.1	
N#CC(C#N)=C1C=C2C=C(N3CCOCC3)CCC2CC1 (stereo not drawn)	28.2	
COc1cc(OC)c2c(-c3cccc(-c4cccc(N)c4)c3)cc(=O)oc2c1	3.43	

Structure (SMILES)	AC50 [1] [µM]	AC50 [2] [µM]
COc1ccccc1/C=C/C=N/NC(=O)CCn1cnc2ccccc21	8.01	
COc1ccc(C2CN=NC23CCc2ccccc2C3=O)cc1 (stereo not drawn)	38.9	
O=C(Nc1cccc(C2=NCCN2)c1)Nc1cccc(C2=NCCN2)c1	20.7	
COc1cccc2c1C(=O)c1c(O)c3c(c(O)c1C2=O)C[C@](O)(C(C)=O)C[C@H]3O[C@@H]1C[C@@H](N)[C@@H](O)[C@@H](C)O1	7.44	
COc1ccc(S(=O)(=O)N2CC[C@@H]3[C@@H](CO)Nc4ccc(-c5ccc(C#N)cc5)cc4[C@@H]32)cc1		1.57
CC1OC(OC2CC(O)C3(CO)C4C(O)CC5(C)C(C6=CC(=O)OC6)CCC5(O)C4CCC3(O)C2)C(O)C(O)C1O (stereo not drawn)	3.38	
Cc1cccc(N2CCN(C(=O)c3ccc4[nH]c(C)c(C)c4c3)CC2)c1C	1.85	
COc1cc2c(c(Br)c1N)-c1cc(Br)c(N)cc1C2=O	> 50	
C[C@@H]1CN([C@H](C)CO)S(=O)(=O)c2ccc(-c3ccc(C#N)cc3)cc2O[C@H]1CN(C)Cc1ccccn1		16
CC1=Nc2cc(C(=O)NCC3CCCO3)ccc2Sc2ccc(Br)cc21 (stereo not drawn)	9.45	
COc1cc(OC)c2c(-c3cccc(-c4sccc4C(C)=O)c3)cc(=O)oc2c1	12.2	
COc1ccc(/C=C2\SC(=O)N(CCNC(=O)C3=COCCO3)C2=O)cc1	1.84	
COc1cc(/C=C(\C#N)C(=O)c2c[nH]c3ccccc23)cc(OC)c1O	8.32	
CCOC(=O)N1CCN(C(=O)C2CCC(=O)N(CCCN3CCCC3=O)C2)CC1 (stereo not drawn)	10.5	
COc1cc([C@@H]2c3cc4c(cc3[C@@H](OC)[C@H]3COC(=O)[C@H]23)OCO4)cc(OC)c1O	2.52	
CCCCN1C(=O)/C(=C/C=C2\Oc3ccccc3N2CC)SC1=S	9.56	
Cc1ccc(Nc2nc(-c3sc(C)nc3C)cs2)cc1	0.812	
Cc1ccc(C2NC(=O)c3ccccc3N2)c(C)c1 (stereo not drawn)	5.08	
COc1ccc(CC(=O)NCc2ccc(-n3cccc3)cc2)cc1OC	3.53	
O=C1NC(=Nc2ccc(O)cc2)S/C1=C/c1ccco1	4.91	
